Assay results as given in patent US6627771B1, “Gamma amino butyric and acid analogs” (Pfizer Inc, priority 1998, dated 2003).
pIC50: −log10 of the molar value. Read-outs that look alike come from different tables or passages of the source.

Experiments:
[1] = biological target: System L; experiment: System L Binding
[2] = tested on: Vogel Conflict (punished drinking) in Wistar rats; experiment: Vogel Conflict; type: in vivo, rat; details: summary of Table 1
Description: Vogel J. R., Beer B. and Cloody D. E., 1971, reported the procedure used. Basically, in each experiment, 100 näive adult male Wistar rats between 170-220 gm were randomly divided into 10 groups and deprived of water for 48 hours prior to testing. Food was available on Day 1 and removed 24 hours prior to test Day 2.
On Day 1, experimental subjects were placed into the test chambers and allowed to drink 5 mL of water unpunished from a drinking tube on a water bottle mounted on the outside of the chamber. Immediately following the unpunished drinking session, each rat was dosed (PO) with vehicle (1 mL/kg) and returned to their home cage. On test Day 2, rats are dosed with the appropriate treatment and placed in test cages, following a 2-hour absorption period each rat is placed into a test chamber and allowed to drink for 10 minutes. Adjacent to the drink-tube is an optical lickmeter with a photo beam detector that counts the number of licks during active drinking. Every 10 licks, the rats received 1-second shock (1 mA) through the drink tube. Thus, a conflict or anxiety-producing situation exists; rats are motivated to drink, however, they are inhibited by the shock. Anxiety is reflected by the low amounts of drinking. Standard anxiolytic drugs produce effects that allow rats to overcome this behavioral inhibition and drink despite the shock.

[3] = tested on: Carrageenin-Induced Hyperalgesia; experiment: Pain Model (Carrageenin-Induced Hyperalgesia, rat paw pressure test); type: in vivo
Description: Carrageenin-Induced Hyperalgesia
Nociceptive pressure thresholds were measured in the rat paw pressure test using an analgesymeter (Randall-Sellitto Method: Randall L. O., Sellitto J. J., A method for measurement of analgesic activity on inflamed tissue. Arch. Int. Pharmacodyn., 4:409-419 (1957)). Male Sprague-Dawley rats (70-90 g) were trained on this apparatus before the test day. Pressure was gradually applied to the hind paw of each rat and nociceptive thresholds were determined as the pressure (g) required to elicit paw withdrawal. A cutoff point of 250 g was used to prevent any tissue damage to the paw. On the test day, two to three baseline measurements were taken before animals were administered 100 μL of 2% carrageenin by intraplantar injection into the right hind paw.

[4] = tested on: sound-induced seizure responses in DBA/2 mice; experiment: DBA2 Mouse Model of Anticonvulsant Efficacy; type: in vivo; details: for responders at 30 mg/kg: Mus musculus, po, read-out: DBA2 Mouse Model % Protected
Description: DBA2 Mouse Model of Anticonvulsant Efficacy
All procedures were carried out in compliance with the NIH Guide for the Care and Use of Laboratory Animals under a protocol approved by the Parke-Davis Animal Use Committee. Male DBA/2 mice, 3 to 4 weeks old were obtained from Jackson Laboratories Bar Harbour, Maine. Immediately before anticonvulsant testing, mice were placed upon a wire mesh, 4 inches square, suspended from a steel rod. The square was slowly inverted through 180° and mice observed for 30 seconds. Any mouse falling from the wire mesh was scored as ataxic (Coughenour L. L., McLean J. R., Parker R. B., “A new device for the rapid measurement of impaired motor finction in mice,” Pharm. Biochem. Behav., 1977;6(3):351-3). Mice were placed into an enclosed acrylic plastic chamber (21 cm height, approximately 30 cm diameter) with a high-frequency speaker (4 cm diameter) in the center of the top lid. An audio signal generator (Protek model B-810) was used to produce a continuous sinusoidal tone that was swept linearly in frequency between 8 kHz and 16 kHz once each 10 msec. The average sound pressure level (SPL) during stimulation was approximately 100 dB at the floor of the chamber. Mice were placed within the chamber and allowed to acclimatize for one minute. […] The incidence of all the seizure phases in the drug-treated and vehicle-treated mice was recorded, and the occurrence of tonic seizures were used for calculating anticonvulsant ED50 values by probit analysis (Litchfield J. T., Wilcoxon F. “A simplified method for evaluating dose-effect experiments,” J. Pharmacol., 1949;96:99-113). […] Groups of DBA/2 mice (n=5-10 per dose) were tested for sound-induced seizure responses 2 hours (previously determined time of peak effect) after given drug orally. […] Doses are expressed as weight of the active drug moiety.

| Compound | pIC50 [1] | antianxiety activity [2] | Pain Model % MPE 1 Hour [3] | Pain Model % MPE 2 Hour [3] | antihyperalgesic activity ([3]; summary of Table 1) | preventing convulsions ([4]; summary of Table 1) | responders at 30 mg/kg ([4]; 1 Hr @ 30 m/k) | responders at 30 mg/kg ([4]; 2 Hr @ 30 m/k) |
| --- | --- | --- | --- | --- | --- | --- | --- | --- |
| NC[C@H](CC(=O)O)C1CCCC1 [4R+, 4(R)-Amino-3-cyclopentyl-butyric Acid] | 3.70 | especially active | 36 % MPE | 13.7 % MPE | especially active | especially active |  |  |
| NC[C@@H](CC(=O)O)C1CCCC1 [5S−, (S)-4-Amino-3-cyclopentyl-butyric Acid] | 3.32 |  | 35 % MPE | 24 % MPE |  |  |  |  |
| NCC(CC(=O)O)C1CCC1 (centres unmarked) [Example 2, 4-Amino-3-cyclobutyl-butyric Acid] | 2.82 |  | −1.7 % MPE | −12.1 % MPE |  |  | 0% | 40% |
| NCC(CC(=O)O)C1CCCC1 (centres unmarked) [Example 3, 4-Amino-3-cyclopentyl-butyric Acid] | 3.33 |  | 73.8 % MPE | 27.7 % MPE |  |  |  |  |
| NCC(CC(=O)O)CC1CC1 (centres unmarked) [Example 6] | 2.73 |  | 2.3 % MPE | −3.4 % MPE |  |  |  |  |
| NCC(CC(=O)O)CC1CCC1 (centres unmarked) [Example 7] | 2.59 |  | 1.5 % MPE | −3.4 % MPE |  |  |  |  |
| NCC(CC(=O)O)CC1CCCC1 (centres unmarked) [Example 8] | 2.33 |  |  |  |  |  |  |  |
| NCC(CC(=O)O)CC1CCCCC1 (centres unmarked) [Example 9] | 2.26 |  |  |  |  |  |  |  |
| CC(CN)(CC(=O)O)C1CC1 (centres unmarked) [Example 10] | 3.22 |  | −4.3 % MPE | −9.1 % MPE |  |  |  |  |
| CC(CN)(CC(=O)O)C1CCC1 (centres unmarked) [Example 11] | 4.13 |  | 4.2 % MPE | 3.1 % MPE |  |  |  |  |
| CC(CN)(CC(=O)O)CC1CCC1 (centres unmarked) [Example 12] | 3.98 |  | −4.2 % MPE | −5.2 % MPE |  |  |  |  |
| CC(CN)(CC(=O)O)CC1CCCC1 (centres unmarked) [Example 13] | 2.98 |  |  |  |  |  |  |  |
